Reference: the NIST ThermoML archive (doi:10.1016/j.tca.2016.07.005)
± gives the expanded uncertainty stated by the source.

Key:
[1] = 101.3 kPa, Liquid; for viscosity: Concentric cylinders viscometry; for mass density: Vibrating tube method
[2] = xn = mol fraction of the nth substance listed; details: 101.3 kPa, Liquid, x1 = 1; for viscosity: Concentric cylinders viscometry; for mass density: Vibrating tube method

| Structure (SMILES) | viscosity ([1]; 313.15 K) | mass density ([1]; 313.15 K) | viscosity ([1]; 323.15 K) | mass density ([1]; 323.15 K) | viscosity ([1]; 333.15 K) | mass density ([1]; 333.15 K) | viscosity ([1]; 343.15 K) | mass density ([1]; 343.15 K) | viscosity ([1]; 353.15 K) | mass density ([1]; 353.15 K) | viscosity ([1]; 363.15 K) | mass density ([1]; 363.15 K) | viscosity ([2]; 313.15 K) | mass density ([2]; 313.15 K) | viscosity ([2]; 323.15 K) | mass density ([2]; 323.15 K) | viscosity ([2]; 333.15 K) | mass density ([2]; 333.15 K) | viscosity ([2]; 343.15 K) | mass density ([2]; 343.15 K) | other results |
| --- | --- | --- | --- | --- | --- | --- | --- | --- | --- | --- | --- | --- | --- | --- | --- | --- | --- | --- | --- | --- | --- |
| OCC(O)CO [glycerol] | 303 ± 31 mPa·s | 1249 ± 2 kg/m3 | 139.3 ± 14 mPa·s | 1242.4 ± 2 kg/m3 | 85.5 ± 8.6 mPa·s | 1235.7 ± 2 kg/m3 | 50.5 ± 5.1 mPa·s | 1228.9 ± 2 kg/m3 | 31.2 ± 3.1 mPa·s | 1221.9 ± 2 kg/m3 | 19.9 ± 2 mPa·s | 1214.8 ± 2 kg/m3 |  |  |  |  |  |  |  |  |  |
| OCC(O)CO [glycerol] + O=S1(=O)CCCC1 |  |  |  |  |  |  |  |  |  |  |  |  | 303 ± 31 mPa·s | 1249 ± 2 kg/m3 | 139.3 ± 14 mPa·s | 1242.4 ± 2 kg/m3 | 85.5 ± 8.6 mPa·s | 1235.7 ± 2 kg/m3 | 50.5 ± 5.1 mPa·s | 1228.9 ± 2 kg/m3 | viscosity ([2]; 353.15 K): 31.2 ± 3.1 mPa·s; mass density ([2]; 353.15 K): 1221.9 ± 2 kg/m3; viscosity ([2]; 363.15 K): 19.9 ± 2 mPa·s; mass density ([2]; 363.15 K): 1214.8 ± 2 kg/m3 |
| CCCC[n+]1ccn(C)c1.O=S(=O)([N-]S(=O)(=O)C(F)(F)F)C(F)(F)F + O=S1(=O)CCCC1 |  |  |  |  |  |  |  |  |  |  |  |  | 26.7 ± 2.7 mPa·s | 1421.9 ± 2.1 kg/m3 | 20.1 ± 2 mPa·s | 1412.4 ± 2.1 kg/m3 | 15.5 ± 1.6 mPa·s | 1402.9 ± 2.1 kg/m3 | 12.4 ± 1.2 mPa·s | 1393.5 ± 2.1 kg/m3 | viscosity ([2]; 293.15 K): 64 ± 6.4 mPa·s; mass density ([2]; 293.15 K): 1441.2 ± 2.1 kg/m3; viscosity ([2]; 298.15 K): 49.5 ± 5 mPa·s; mass density ([2]; 298.15 K): 1436.4 ± 2.1 kg/m3; viscosity ([2]; 303.15 K): 39 ± 3.9 mPa·s; mass density ([2]; 303.15 K): 1431.5 ± 2.1 kg/m3 |
| CCCC[n+]1ccn(C)c1.O=S(=O)([N-]S(=O)(=O)C(F)(F)F)C(F)(F)F | 26.7 ± 2.7 mPa·s | 1421.9 ± 2.1 kg/m3 | 20.1 ± 2 mPa·s | 1412.4 ± 2.1 kg/m3 | 15.5 ± 1.6 mPa·s | 1402.9 ± 2.1 kg/m3 | 12.4 ± 1.2 mPa·s | 1393.5 ± 2.1 kg/m3 |  |  |  |  |  |  |  |  |  |  |  |  | viscosity ([1]; 293.15 K): 64 ± 6.4 mPa·s; mass density ([1]; 293.15 K): 1441.2 ± 2.1 kg/m3; viscosity ([1]; 298.15 K): 49.5 ± 5 mPa·s; mass density ([1]; 298.15 K): 1436.4 ± 2.1 kg/m3; viscosity ([1]; 303.15 K): 39 ± 3.9 mPa·s; mass density ([1]; 303.15 K): 1431.5 ± 2.1 kg/m3 |
| O=S1(=O)CCCC1 [sulfolane] | 8.1 ± 0.8 mPa·s | 1251.7 ± 2 kg/m3 | 6.4 ± 0.6 mPa·s | 1244 ± 2 kg/m3 | 5.2 ± 0.5 mPa·s | 1235.4 ± 2 kg/m3 | 4.3 ± 0.4 mPa·s | 1225 ± 2 kg/m3 | 3.7 ± 0.4 mPa·s | 1215 ± 2 kg/m3 | 3.2 ± 0.3 mPa·s | 1206 ± 2 kg/m3 |  |  |  |  |  |  |  |  | viscosity ([1]; 298.15 K): 11.9 ± 1.2 mPa·s; mass density ([1]; 298.15 K): 1266.4 ± 2 kg/m3; viscosity ([1]; 303.15 K): 10.5 ± 1.1 mPa·s; mass density ([1]; 303.15 K): 1259.4 ± 2 kg/m3 |
